The target of one test is TgCKIα (Toxoplasma gondii, UniProt Q6QNM1). Kind of test: Casein kinase assay, TgCKIα (recombinant FLAGTgCKIα or partially purified native). Type of test: biochemical. Details: Km(app), native TgCKIα; other: substrate titration, 2 μM ATP; IC50, nativeTgCKIα; other: partially purified native enzyme from Toxoplasma tachyzoites; sensitivity of native TgCKIα phosphopeptide kinase activity (HiTrapQ fractions 5-9); other: 0.2 μM hymenialdisine or 1. The procedure:
Protein kinase assays—Casein kinase activity was assayed essentially as described (Donald, R. G. K. et al., 2002, supra) using 96-well phosphocellulose plates (MAPH-NOB, Millipore; Billerica, Mass.) to capture ^33P-phosphorylated peptide or casein substrates. Kinase reactions were carried out in 40 μl volumes containing 25 mM Hepes, pH 7.4, 10 mM MgCl2, 20 mM β-glycerophosphate, 1 mM DTT, 250 μM substrate, 1 mg/mL BSA, 2 μM ATP, and 0.01 μM [γ-^33P]ATP (Perkin-Elmer, 3000 Ci/mmol). […] Casein (5% solution), partially dephosphorylated α-casein and β-casein were obtained from Sigma.
(§1) A variety of commercially available peptide substrates were evaluated. From Calbiochem (San Diego, Calif.): CKI substrate (RRKDLHDDEEDEAMSITA; SEQ ID NO:13); CKII substrate (RRADDSDDDDD; SEQ ID NO:14); Syntide-2 substrate (PLARTLSVAGLPGKK; SEQ ID NO:15); CaM kinase II substrate (281-291) (MHKNETVECLK; SEQ ID NO:16). From Promega: CKI substrate (DDDEESITRR; SEQ ID NO:17) and kemptide (LRRASLG; SEQ ID NO:18). From New England Biolabs (Beverly, Mass.): CKI phosphopeptide substrate (KRRRALS(p)VASLPGL; SEQ ID NO:19), and CKII substrate (RRREEETEEE; SEQ ID NO:20). PKG assays were performed with kemptide as substrate and 10 μM cGMP. CDPK was assayed with Syntide-2 substrate and in the presence of 100 μM CaCl2.
Purification of recombinant CKI enzymes—E. coli strain BL21 Origami™ (Novagen) was transformed with FLAGTgCKIα and FLAGTgCKIβ expression vectors, and colonies were expanded into 250 mL LB cultures grown at 37° C. Expression was induced with 1 mM IPTG once cultures had reached an OD600nm of 0.3-0.5, and the transformed bacteria were harvested 4-6 hours later. Cell pellets were resuspended in 15 mL of lysis buffer containing protease inhibitors and lysates prepared as described by the supplier (Bugbuster™ reagents, Novagen). The concentration of NaCl in the lysate was adjusted to 0.5 M, and 0.5 mL of FLAG-agarose beads were added (Sigma). The mixture was allowed to rock in a Nutator mixer (Becton-Dickinson; San Jose, Calif.) for 2 hours at 4° C. The slurry was then poured into an empty column and the matrix washed with 50 mL of wash buffer (50 mM Tris-HCl, pH 7.4, 0.5M NaCl, 10% glycerol, 1 mM DTT, 1 mM EDTA). […] Protein was measured with a micro-BCA reagent (Pierce) following a TCA-sodium deoxycholate step to remove residual FLAG peptide (Brown et al., 1989, Anal. Biochem. 180:136-139). […]
(§2) Preparations of FLAGTgCKIα and FLAGTgCKIβ were purified further on a SMART system FPLC 0.1 mL MonoQ anion exchange column (Pharmacia; New York, N.Y.) equilibrated in buffer A (50 mM Hepes, pH 7.4, 10% glycerol, 1 mM DTT) at room temperature. […] A linear salt gradient was applied (0-500 mM in 3 mL at 100 μl/min) and 100 μl fractions were collected and analyzed by SDS-PAGE and for CKI activity. […]

In the next test the target is T1, TgCDPK1 (Toxoplasma gondii, UniProt Q9BJF5).
T1 construct: The TgCDPK1 open reading frame was amplified by PCR from a Toxoplasma cDNA library; made in house
Kind of test: CDPK assay with Syntide-2, T. gondii CDPK1. In kind it is biochemical. Here is the method:
(§3) Protein kinase assays—Casein kinase activity was assayed essentially as described (Donald, R. G. K. et al., 2002, supra) using 96-well phosphocellulose plates (MAPH-NOB, Millipore; Billerica, Mass.) to capture ^33P-phosphorylated peptide or casein substrates. Kinase reactions were carried out in 40 μl volumes containing 25 mM Hepes, pH 7.4, 10 mM MgCl2, 20 mM β-glycerophosphate, 1 mM DTT, 250 μM substrate, 1 mg/mL BSA, 2 μM ATP, and 0.01 μM [γ-^33P]ATP (Perkin-Elmer, 3000 Ci/mmol). The reactions were initiated by the addition of enzyme and incubated at room temperature for 60 min. Casein (5% solution), partially dephosphorylated α-casein and β-casein were obtained from Sigma.
as §1
Purification of recombinant TgCDPK1 and TgPKG—The TgCDPK1 open reading frame was amplified by PCR from a Toxoplasma cDNA library, using primers based on the published sequence (Kieschnick et al., 2001, supra): sense primer, […] (SEQ ID NO:44); and, antisense primer, […] (SEQ ID NO:45). A C-terminal FLAG epitope tag was appended to the TgCDPK1 open reading frame by an additional round of PCR amplification (KOD polymerase) and the resulting DNA fragment was sub-cloned into a tubulin promoter expression vector (Donald and Liberator, 2002, supra). […]

The next test deals with EtCKIα (Eimeria tenella, UniProt Q6QNL9). Kind of test: Casein kinase assay, partially purified native EtCKIα. In kind it is biochemical. The following applies: partially purified native enzyme from Eimeria oocysts; read-out: IC50, nativeEtCKIα. Here is the method: as §3, §1
Partial purification of native EtCKIα—The inability to stably express recombinant EtCKIα in T. gondii provided impetus to purify native enzyme from E. tenella parasites (slide 5). A lysate was prepared from 2×10^10 unsporulated oocysts using previously published procedures (Gurnett, A. M. et al., 2002, supra). The first two steps of the purification scheme used were essentially scaled-up from the method described for the purification of native TgCKIα. The lysate was subjected to preparative HiLoad Q anion-exchange chromatography and fractions eluted with a NaCl gradient (0-1 M NaCl). […]

The target in the next test is FLAGTgCDPK3 (Toxoplasma gondii, UniProt A0A125YQG4). Description: Protein kinase assay, FLAGTgCDPK3. Type of test: biochemical. The settings on record: read-out: IC50, FLAGTgCDPK3; recombinant enzyme, dose response titrations. The procedure: as §3, §1
A further test addresses T2, EtPKG (Eimeria tenella, UniProt Q8MMZ8).
T2 construct: Eimeria oocysts (EtCKIα and EtPKG); from tissue; host or cells: Eimeria oocysts
Kind of test: PKG assay with kemptide, native EtPKG. In kind it is biochemical. The settings on record: native enzyme from Eimeria oocysts; read-out: IC50, nativeEtPKG. The procedure:
as §3, §1

For another test, the target named is FLAGEtCDPK1 (Eimeria tenella, UniProt Q3HNM4). Description: Protein kinase assay, FLAGEtCDPK1. Type of test: biochemical. The settings on record: recombinant enzyme, dose response titrations. Here is the method:
as §3, §1

For test [1], the target named is T3, Toxoplasma gondii calmodulin domain-like protein kinase 1 (FLAGTgCDPK1, recombinant) (Toxoplasma gondii, UniProt Q9BJF5).
T3 construct: FLAG (C); made in house; host or cells: transgenic Toxoplasma gondii parasites
Kind of test: Kinase assay, inhibition of recombinant TgCDPK1. Type of test: biochemical. The following applies: CDK inhibitor study (text to Table 2). The procedure:
as §3
A variety of commercially available peptide substrates were evaluated. […]
Purification of recombinant TgCDPK1 and TgPKG—The TgCDPK1 open reading frame was amplified by PCR from a Toxoplasma cDNA library, using primers based on the published sequence (Kieschnick et al., 2001, supra): sense primer, […] […] A C-terminal FLAG epitope tag was appended to the TgCDPK1 open reading frame by an additional round of PCR amplification (KOD polymerase) and the resulting DNA fragment was sub-cloned into a tubulin promoter expression vector (Donald and Liberator, 2002, supra). […]

Test [2] concerns the target T4, Toxoplasma gondii casein kinase I alpha (TgCKIα), recombinant FLAG-tagged or native, SEQ ID NO:4 (Toxoplasma gondii, UniProt Q6QNM1).
T4 construct: same protein
Description: Casein kinase assay, inhibition of TgCKIα (recombinant or native forms). In kind it is biochemical. Here is the method: as §3
A variety of commercially available peptide substrates were evaluated. From Calbiochem (San Diego, Calif.): CKI substrate (RRKDLHDDEEDEAMSITA; SEQ ID NO:13); CKII substrate (RRADDSDDDDD; SEQ ID NO:14); Syntide-2 substrate (PLARTLSVAGLPGKK; SEQ ID NO:15); CaM kinase II substrate (281-291) (MHKNETVECLK; SEQ ID NO:16). […]
as §2

The subject of the next test is T. gondii. Description: Parasite growth inhibition, modified [3H]-uracil uptake assay in infected HFF cell monolayers. Type of test: cell-based, Toxoplasma gondii. The settings on record: Toxoplasma gondii, HFF. The text has this: Host cells and parasite cultures—RH strain or RH ΔHXGPRT strain tachyzoites of T. gondii were maintained by serial passage in confluent monolayers of human foreskin fibroblasts (“HFF”) as described (Roos, D. S. et al., 1994, Methods Cell Biol. 45:27-63). A modified [^3H]-uracil uptake assay (Pfefferkorn, E. R. and Pfefferkorn, L. C., 1977, J. Protozool. 24:449-453) adapted for use in 96-well scintillation plates (Cytostar-T, Amersham; Piscataway, N.J.) was used to measure parasite growth inhibition. Each well, previously seeded with HFF cells, was inoculated with T. gondii tachyzoites (2×10^4) in 200 μl of growth media containing 2 μCi [5,6]-^3H-uracil (Perkin-Elmer NEN; Boston, Mass.) and serially diluted compound. Following incubation at 37° C. for 36-48 hours, tritium-incorporation into host cell monolayers was directly counted in a microplate scintillation counter (MicroBeta, PerkinElmer-Wallac).
The only other CDK inhibitor with sub-μM activity against T. gondii was indirubin-3′-monoxime, which gave an IC50 value of 500 nM.

Data on two compounds can be found in patent publication US7671181B2, “Polynucleotides encoding coccidian parasite casein kinase I, a chemotherapeutic target for antiprotozoal agents” (Merck Sharp & Dohme Corp., priority 2004, dated 2010).

Broadly, the IC50 is the concentration needed to halve the response being measured.

Chain of TgCKIα (Q6QNM1 whole entry, looked up): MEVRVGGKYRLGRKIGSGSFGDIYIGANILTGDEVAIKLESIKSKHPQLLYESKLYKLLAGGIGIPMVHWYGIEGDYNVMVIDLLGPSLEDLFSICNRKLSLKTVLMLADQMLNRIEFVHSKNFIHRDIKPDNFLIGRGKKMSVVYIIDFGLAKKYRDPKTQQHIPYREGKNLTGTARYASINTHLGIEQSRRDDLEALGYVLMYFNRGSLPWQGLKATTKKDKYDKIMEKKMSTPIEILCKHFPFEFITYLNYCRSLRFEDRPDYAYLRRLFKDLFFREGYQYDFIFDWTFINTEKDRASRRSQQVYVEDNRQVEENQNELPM
T4 sequence (Q6QNM1 whole entry): as the sequence (Q6QNM1 whole entry, looked up) above
T2 sequence (Q8MMZ8 whole entry): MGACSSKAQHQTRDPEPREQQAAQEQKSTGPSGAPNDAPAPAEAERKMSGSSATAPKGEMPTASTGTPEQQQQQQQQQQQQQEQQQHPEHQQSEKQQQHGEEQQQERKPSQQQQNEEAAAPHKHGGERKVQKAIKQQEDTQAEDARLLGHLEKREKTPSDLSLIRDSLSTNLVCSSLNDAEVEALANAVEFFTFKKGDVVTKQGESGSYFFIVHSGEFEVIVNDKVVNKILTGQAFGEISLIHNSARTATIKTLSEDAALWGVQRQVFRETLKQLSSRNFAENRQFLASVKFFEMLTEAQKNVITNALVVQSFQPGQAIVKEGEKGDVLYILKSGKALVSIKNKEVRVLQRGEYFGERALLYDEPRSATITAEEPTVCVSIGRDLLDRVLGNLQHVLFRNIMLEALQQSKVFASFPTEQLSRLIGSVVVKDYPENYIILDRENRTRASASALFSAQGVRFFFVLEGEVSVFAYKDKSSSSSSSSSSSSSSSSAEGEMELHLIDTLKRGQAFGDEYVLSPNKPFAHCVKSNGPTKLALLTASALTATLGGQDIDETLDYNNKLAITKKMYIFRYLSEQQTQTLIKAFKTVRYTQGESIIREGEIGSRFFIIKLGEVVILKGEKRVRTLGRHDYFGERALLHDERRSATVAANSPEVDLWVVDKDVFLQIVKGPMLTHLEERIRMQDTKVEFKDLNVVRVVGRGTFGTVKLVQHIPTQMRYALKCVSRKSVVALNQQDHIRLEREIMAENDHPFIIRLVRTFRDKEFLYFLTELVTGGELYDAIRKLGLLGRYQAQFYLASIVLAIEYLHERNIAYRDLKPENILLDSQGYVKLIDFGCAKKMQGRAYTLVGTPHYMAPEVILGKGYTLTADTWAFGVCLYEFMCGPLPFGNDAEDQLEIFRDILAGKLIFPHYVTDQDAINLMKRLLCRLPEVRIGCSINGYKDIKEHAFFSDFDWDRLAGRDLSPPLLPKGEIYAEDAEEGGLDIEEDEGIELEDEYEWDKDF
Chain of FLAGTgCDPK3 (A0A125YQG4 entry or part of it): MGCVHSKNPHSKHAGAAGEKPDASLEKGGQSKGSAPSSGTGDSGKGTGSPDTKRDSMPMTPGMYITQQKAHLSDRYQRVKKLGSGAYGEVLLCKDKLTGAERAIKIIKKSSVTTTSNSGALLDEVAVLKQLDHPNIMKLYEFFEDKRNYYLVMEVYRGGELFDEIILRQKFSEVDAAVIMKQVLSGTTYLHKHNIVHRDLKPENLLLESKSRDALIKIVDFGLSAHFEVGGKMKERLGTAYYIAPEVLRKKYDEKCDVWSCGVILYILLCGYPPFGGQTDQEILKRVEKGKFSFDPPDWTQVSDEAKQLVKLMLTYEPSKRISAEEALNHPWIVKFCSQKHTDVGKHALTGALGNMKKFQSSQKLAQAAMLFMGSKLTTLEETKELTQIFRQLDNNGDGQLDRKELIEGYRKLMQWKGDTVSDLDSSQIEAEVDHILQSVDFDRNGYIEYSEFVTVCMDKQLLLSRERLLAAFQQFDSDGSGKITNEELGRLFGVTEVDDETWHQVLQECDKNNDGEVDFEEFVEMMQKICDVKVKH
T1 sequence (Q9BJF5 entry or part of it): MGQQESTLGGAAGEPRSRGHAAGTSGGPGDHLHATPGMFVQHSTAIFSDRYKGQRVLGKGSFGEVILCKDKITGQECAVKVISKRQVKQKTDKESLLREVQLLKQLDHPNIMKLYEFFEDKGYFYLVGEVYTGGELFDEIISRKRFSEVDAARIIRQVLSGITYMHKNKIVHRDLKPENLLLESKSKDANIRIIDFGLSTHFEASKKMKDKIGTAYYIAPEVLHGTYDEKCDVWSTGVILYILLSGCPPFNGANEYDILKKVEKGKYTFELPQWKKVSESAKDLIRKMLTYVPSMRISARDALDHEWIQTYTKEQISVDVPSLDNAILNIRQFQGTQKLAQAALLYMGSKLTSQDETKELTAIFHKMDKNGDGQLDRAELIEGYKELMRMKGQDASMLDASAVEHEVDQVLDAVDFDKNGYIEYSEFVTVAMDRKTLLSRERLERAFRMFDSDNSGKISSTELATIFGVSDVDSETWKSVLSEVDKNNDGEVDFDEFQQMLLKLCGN
T3 sequence (Q9BJF5 entry or part of it): as above
Chain of EtCKIα (Q6QNL9 whole entry): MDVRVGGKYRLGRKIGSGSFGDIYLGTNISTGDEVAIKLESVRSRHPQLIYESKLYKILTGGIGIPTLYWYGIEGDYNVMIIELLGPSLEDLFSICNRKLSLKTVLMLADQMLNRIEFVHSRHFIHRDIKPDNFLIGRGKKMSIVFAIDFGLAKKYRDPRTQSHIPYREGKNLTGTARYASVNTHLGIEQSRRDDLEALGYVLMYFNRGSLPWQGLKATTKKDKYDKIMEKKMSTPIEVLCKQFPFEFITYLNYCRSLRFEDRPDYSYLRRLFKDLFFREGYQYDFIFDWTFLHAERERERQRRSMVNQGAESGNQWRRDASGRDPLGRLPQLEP
Chain of FLAGEtCDPK1 (Q3HNM4 entry or part of it): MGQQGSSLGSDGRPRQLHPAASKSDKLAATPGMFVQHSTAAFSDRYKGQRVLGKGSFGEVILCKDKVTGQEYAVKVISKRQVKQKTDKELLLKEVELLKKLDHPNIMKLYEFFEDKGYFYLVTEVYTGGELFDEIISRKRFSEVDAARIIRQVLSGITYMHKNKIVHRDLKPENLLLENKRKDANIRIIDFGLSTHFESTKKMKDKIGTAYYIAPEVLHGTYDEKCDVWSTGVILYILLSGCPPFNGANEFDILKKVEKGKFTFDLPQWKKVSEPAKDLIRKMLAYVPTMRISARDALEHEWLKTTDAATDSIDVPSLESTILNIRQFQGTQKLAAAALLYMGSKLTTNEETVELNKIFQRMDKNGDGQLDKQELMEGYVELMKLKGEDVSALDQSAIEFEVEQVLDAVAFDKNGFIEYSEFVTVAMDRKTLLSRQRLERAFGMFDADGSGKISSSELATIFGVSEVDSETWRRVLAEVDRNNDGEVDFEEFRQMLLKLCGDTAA

For the compound `CN1CCC(c2ccn3c(-c4ccnc(N)n4)c(-c4ccc(F)cc4)nc3c2)CC1` [Compound 39, 4[2-(4-Fluorophenyl)1-7-(1-methylpiperidin-4-yl)imidazo[1,2-a]pyridin-3-yl]pyrimidin-2-amine], the IC50 on TgCKIα was 15 nM; at TgCDPK1 it was 0.5 nM; at EtCKIα it was 69 nM; on FLAGTgCDPK3, greater than 10000 nM; on EtPKG it was 0.5 nM; on FLAGEtCDPK1 it was 126 nM.
Consider `O=C1Nc2ccccc2/C1=C1/Nc2ccccc2/C1=N\O` [indirubin-3′-monoxime], for which the IC50 in [1] stood at 175 nM; in test [2], 172 nM; in the test with T. gondii, 500 nM.
